Reference: a melting point compilation (Tetko et al.; mined from patent text by program, amines drawn as free bases though some values may be those of a salt)

| SMILES | melting point |
| --- | --- |
| NCCNc1ccc([N+](=O)[O-])cc1Cl | 116 °C |
| O=S(=O)(c1ccccc1)N1CCC(C(=NCc2ccc(F)cc2)c2ccc(F)cc2)CC1 | 114 to 116 °C |
| COc1cc(C=C2C(=O)CCc3c2ccc2c3OCO2)c([N+](=O)[O-])cc1OC | 66 to 68 °C |
| CCC(CC)C(=O)Nc1cc(-c2ccccc2)nc(-c2ccccc2)n1 | 102 °C |
| CN1CCN(C(=O)[C@H](CC(N)=O)NC(=O)OC(C)(C)C)CC1 | 68 to 70 °C |
| CSc1nc(N)nc2c3nc(C)cc(C)c3nn12 | 306 to 307 °C |
| Cc1nc2sccn2c1C1=NNC(=O)CN1 | 270 to 273 °C |
| O=C(NCc1ccc(Cl)cc1)c1ccc2cccnc2c1O | 162 to 165 °C |
| COC(=O)COc1cccc(CN(C)c2cnc(-c3ccccc3)c(-c3ccccc3)n2)c1 | 132 to 134 °C |
| Cc1ccc2c(c1)CCN2c1ccccc1C#N | 59 to 60 °C |
| CON=Cc1cc(-n2c(=O)cc(C(F)(F)F)[nH]c2=O)c(F)cc1Cl | 176 to 177 °C |
| CCOC(=O)c1ncsc1-c1cccc(I)c1 | 77 to 78 °C |
| C=CCC(O)(CC=C)c1nc(-c2ccncc2)c(-c2ccc(Cl)cc2)n1CC | 159 to 160 °C |
| CCOCCc1nnc(S)n1N | 123 to 124 °C |
| CC(=O)SCCC(=O)N1NC(=O)CC1C(=O)O (stereo not given) | 205 to 207 °C |
| CC(=O)Oc1ccc(-c2c(C)c3cccc(OC(C)=O)c3oc2=O)c(OC(C)=O)c1 | 119 to 120 °C |
| Cc1cc(F)ccc1-c1nc(N[C@H]2CC[C@H](O)CC2)nc2c1ccc(=O)n2-c1c(F)cccc1F | 158 to 160 °C |
| CCc1nn(C2CCCC2)c2cc(C(=O)NCCC(=O)NOCc3ccccc3)ccc12 | 134 to 136 °C |
| COc1ccc(C2(C#Cc3ccc(C(=O)O)cc3)CCCC(=O)C2)cc1OC1CCCC1 (racemic) | 102 to 104 °C |
| Cc1csc2c(C=O)ncn12 | 172 to 175 °C |
| CN(C)CCc1cccc(N2C(=O)N(c3ccc(Cl)cc3Cl)Cc3cnc(Nc4ccccc4)nc32)c1 | 101 to 105 °C |
| O=C(NC[C@H]1CN(c2ccc(N3CCS(=O)(=O)CC3)c(F)c2)C(=O)O1)C(F)F | 177 to 178 °C |
| CN(C)C1CCCC(C(=O)N2CCC(c3[nH]nc4c3C(=O)c3c(NC(=O)NN5CCOCC5)cccc3-4)CC2)C1 (stereo not given) | 153 to 155 °C |
| CCOC(=O)c1sc2nc(-c3ccccc3)cnc2c1N | 173 to 175 °C |
| CCOC(=O)CC(=O)c1cc(F)c(F)cc1F | 57 to 59 °C |

| SMILES | melting point |
| --- | --- |
| COc1cccc(C(C(N)=O)(c2c(Cl)cncc2Cl)C2CCCC2)c1 (stereo not given) | 106 to 107 °C |
| c1ccc(OCCSCc2nnc(-c3ccc(OCc4cccnc4)cc3)o2)cc1 | 111 to 112 °C |
| CCCCCCCCCCCCCCCCCNC(=O)OC1CCCOC1COCC(O)CCCCCCO (stereo not given) | 67 to 68 °C |
| C[C@]1(N2Cc3c(OCc4ccc(CN5CCOCC5)cc4)cccc3C2=O)CCC(=O)NC1=O | 178 to 180 °C |
| CC(C)(C)OC(=O)CON=C(C(=O)O)c1ccsc1 | 103 to 104 °C |
| CC1(C)OC(c2ccc(S(C)(=O)=O)c(F)c2)=C(c2cccc(Cl)c2)C1=S | 105 to 106 °C |
| CNc1cn(-c2cncnc2)nc1Cl | 111 to 114 °C |
| C=CCNc1c(C(=O)O)cnc2cn[nH]c12 | 240 to 242 °C |
| O=C(O)CCCCOc1ccc(OCc2ccccc2)cc1 | 127 to 128 °C |
| Oc1ccc2c(c1)C13CCN(CC4CCC4)C(C2)C1CCOC3 (stereo not given) | 197 to 198 °C |
| CS(=O)(=O)c1ccc(-c2ccccc2N2CCCCC2)cc1 | 140 °C |
| CC(C)(C)OC(=O)[C@H]1C[C@@H](C(=O)OCc2ccccc2)[C@@H](c2ccccc2)N1C(=O)CNC(=O)Nc1cccc(C(=O)OCc2ccccc2)c1 (racemic) | 110 °C |
| CC(=O)NC(C)(C)c1ccc(C(C)N2CCN(c3ccccc3)CC2)cc1 (stereo not given) | 169 to 171 °C |
| Cc1cc(F)c(N)cc1-n1cc(C(=O)O)c(=O)c2cc(F)c(N)c(C)c21 | > 240 °C |
| N#CC1CN1C(=O)NC(=O)c1ccc2c(c1)CCCC2 (stereo not given) | 166 to 168 °C |
| COC1OC(CO)C(OCc2ccccc2)C(O)C1OCc1ccccc1 (stereo not given) | 104 to 105 °C |
| N#Cc1cc(C2=NOC(c3cc(Cl)cc(Cl)c3)(C(F)(F)F)C2)ccc1-n1cc(Cl)cn1 (stereo not given) | 190 to 191 °C |
| CCOC(=O)C(=O)CC(=O)c1cn(Cc2cccc(OC)c2)c2ccccc2c1=O | 177 to 179 °C |
| Cn1nc([N+](=O)[O-])nc1Br | 90.5 to 91.5 °C |
| COc1ccc(C=C2COCC(=Cc3ccc(OC)c(C)c3C)C2=O)c(C)c1C | 225 to 227 °C |
| NC(=O)C1CCN(C(=O)CNC(=O)CN2CCCC2=O)CC1 | 217 to 219 °C |
| CC(=O)NCc1nnc(S)s1 | 200 to 203 °C |
| O=S(=O)(c1ccc(Cl)cc1)N1CCCC1c1ccc(Cl)cc1 (racemic) | 159 °C |
| Cc1ccc2nc(-c3cccnc3N)n(-c3ccc(CNC(=O)c4ccccc4)cc3)c2n1 | 203 to 205 °C |
| C=CCNc1cc(C(=O)O)cc(S(N)(=O)=O)c1-c1ccccc1 | 169 to 172 °C |

| SMILES | melting point |
| --- | --- |
| CCCCOc1c(CNC(=O)OC(C)(C)C)n(CC(C)C)c(=O)c2ccc(C(=O)OC)cc12 | 148 to 149 °C |
| CC(Cc1c[nH]c2ccccc12)(NC(=O)OC1C2CC3CC(C2)CC1C3)C(=O)NCC(CSCC(=O)O)c1ccccc1 (stereo not given) | 78 to 93 °C |
| CCc1nc(-c2ncn(-c3cccc(O)c3)c2C)no1 | 226 to 227 °C |
| O=C(O)CCCCC(=O)NCCc1ccccc1 | 110 to 111 °C |
| Nc1nc2ccccc2c2c1ncn2CCOCC#Cc1ccccc1 | 196 to 197 °C |
| CCOC(=O)CCc1c(C)nc(CC)n(Cc2ccc(-c3ccccc3-c3nnn[nH]3)cc2)c1=O | 76 to 80 °C |
| O=C(NCC1CCN(C[C@H]2COc3ccc(Cl)cc3O2)CC1)c1cccnc1 | 172 to 174 °C |
| CN1CCN(c2ncc3c(=O)c(C(=O)O)cn(C4CC4)c3n2)CC1 | 209 to 210 °C |
| CC(C)(C)OC(=O)N1CCN(c2ccc([N+](=O)[O-])cc2C#N)CC1 | 141 to 142 °C |
| CSc1ccc(CN2CCC(=O)C(C(c3ccccc3)c3ccccc3)C2)cc1 (stereo not given) | 126 to 128 °C |
| Cc1ccc(S(=O)(=O)C2(CCCC#Cc3cccnc3)SC(=O)NC2=O)cc1 (stereo not given) | 173 to 176 °C |
| COc1ccc2c(c1)C(=NO)CCO2 | 120 to 121 °C |
| COC(=O)c1csc(NC(=O)C(CC2CCCC2)c2ccc(Cl)cc2)n1 (stereo not given) | 156 to 157 °C |
| COc1cc(C=C2SC(=O)NC2=O)ccc1OCCN1c2ccccc2Sc2ccccc21 | 210 to 212 °C |
| Cc1nc(C(F)(F)F)ccc1/C=C/C(=O)Nc1ccc2cc[nH]c2c1 | 223 °C |
| COC(=O)c1ccc(-c2cccc(CO)c2)cc1 | 88 to 89 °C |
| CC(C)[C@H]1CC[C@H](C(=O)COS(=O)(=O)c2ccccc2)CC1 | 48 to 49 °C |
| CCCOc1ccc(C)cc1-c1nc2c(CCC)nn(C)c2c(=O)[nH]1 | 115 to 116 °C |
| Cc1cc(O)c([N+](=O)[O-])c(=O)n1CC(=O)OCc1ccccc1 | 146 to 147 °C |
| CNc1nc(C)c(-c2nc3ccccc3c(=O)n2-c2ccc(Cl)cc2)s1 | 195 to 197 °C |
| CC(C)c1ccc(C(=O)CCl)cc1S(N)(=O)=O | 141 °C |
| CC(=O)N1N=C(c2ccc([N+](=O)[O-])c(C)c2)c2cc3c(cc2CC1C(N)=O)OCO3 (stereo not given) | 157 to 161 °C |
| CCOC(=O)c1cccc2nc(CNC)n(Cc3ccc(-c4ccccc4-c4nnn[nH]4)cc3)c12 | 248 to 250 °C |
| C(=Nc1ccc(-c2c[nH]cn2)cc1)Nc1ccccc1 | 123 to 124 °C |
| CCn1cc(C(=O)O)c(=O)c2cnc(N3CCN(Cc4ccc(NC(C)=O)cc4)CC3)nc21 | 216 to 219 °C |

| SMILES | melting point |
| --- | --- |
| O=C(O)c1cnn2c(C3CC3)cc(-c3ccc(Cl)cc3)nc12 | 242 to 243 °C |
| Cn1c(-c2ccccc2)c(C=O)c2ccc(Cl)cc2c1=O | 172 to 173 °C |
| O=[N+]([O-])c1ccc(SCCCCl)cc1 | 50 to 52 °C |
| CC(CO)N1CCN(c2cccc3c2OCCO3)CC1 (stereo not given) | 91 to 92 °C |
| CS(=O)(=O)c1ccc(-c2cc(CCCO)nn2CC2CCCCC2)cc1 | 94 to 95 °C |
| CCOC(=O)c1cc2cccc(NS(=O)(=O)c3ccccc3C(F)(F)F)c2[nH]1 | 138 to 139 °C |
| CCc1c(C)c(=O)oc2cc(-c3nnc(C)s3)cc(OC)c12 | 135 to 138 °C |
| CC(=O)c1cc2c(c(Br)c1O)CCCC2 | 127 to 130 °C |
| OC(CCN1CC=C(c2ccccc2)CC1)c1cccc2ccccc12 (stereo not given) | 93 to 94 °C |
| CN(C(=O)Nc1ccc(Cl)cc1)n1cnc2ccccc2c1=O | 186 to 188 °C |
| CN1C(=O)N(CBr)C(=O)C1(C)C | 86 to 88 °C |
| CCN(CC)C(=O)C(C)N1C(=O)C(NC(=O)OCc2ccccc2)N=C(c2ccccc2)c2ccccc21 (stereo not given) | 170 to 171 °C |
| CCN(CC)CC#CC(=O)Nc1ccc2ncc(C#N)c(Nc3cccc(Br)c3)c2c1 | 133 to 135 °C |
| O=C1Cc2cc(Cl)c(N3CCCCC3)cc2O1 | 129 to 131 °C |
| O=C(O)C1=COc2c(C(=O)c3cccs3)cc(Cl)c(Cl)c2O1 | 233 to 236 °C |
| CCOc1nc2cccc(CC)c2c(=O)o1 | 89 to 91 °C |
| CC(=Nc1ccc(NC(=O)CN)cc1)N(C)C | 142 to 145 °C |
| Cc1ccc(-c2nc3c(N[C@H]4[C@@H](C(N)=O)[C@@H]5C=C[C@H]4C5)c(Br)cnc3[nH]2)o1 | 200 to 201 °C |
| Cc1nc(C)c(N2CCCn3c2nc2c(Cl)ccc(C(OC(F)F)C(F)(F)F)c23)c(C)n1 (stereo not given) | 168 to 170 °C |
| CC(C(=O)O)c1cccc(C(=O)c2ccccc2)c1[N+](=O)[O-] (stereo not given) | 177 to 179 °C |
| COc1cc2ncnc(Nc3cccc(Br)c3)c2cc1OCCN1CC(=O)O[C@@H](C)C1 | 190 °C |
| C=C(Cl)CS(=O)(=O)NC(=O)c1nc(OC)cc(OC)n1 | 125 to 130 °C |
| CC(=O)OC1C(Oc2cccc(O)c2C(=O)CCc2ccc3occc3c2)OC(CO)C(O)C1O (stereo not given) | 152 to 156 °C |
| CCCCCOc1ccc(C(=O)OC(C)C(C)OC(=O)c2ccc(OCCCCC)cc2)cc1 (stereo not given) | 52 °C |
| CCC(=O)N1Cc2c(-c3noc(C4CC4)n3)ncn2-c2ccccc21 | 175 to 176 °C |
